# Reference: ChEMBL document CHEMBL6153041, “Discovery of High-Affinity SMARCA2/4 Bromodomain Ligands and Development of Potent and Exceptionally Selective SMARCA2 PROTAC Degraders” (J Med Chem, 2025)
# pIC50: −log10 of the molar value.
# Key:
# [1] = biological target: T1, von Hippel-Lindau disease tumor suppressor/SWI/SNF-related matrix-associated actin-dependent regulator of chromatin subfamily A member 2 (Homo sapiens, UniProt P51531+P40337); assay: PROTAC activity at VHL1/SMARCA2 in human genetically modified Hela cells assessed as degradation measured after 24 hrs incubation by Nano-Glo HiBiT Lytic Detection Assay; type: cell-based
# Target sequence in this assay (P51531 whole entry): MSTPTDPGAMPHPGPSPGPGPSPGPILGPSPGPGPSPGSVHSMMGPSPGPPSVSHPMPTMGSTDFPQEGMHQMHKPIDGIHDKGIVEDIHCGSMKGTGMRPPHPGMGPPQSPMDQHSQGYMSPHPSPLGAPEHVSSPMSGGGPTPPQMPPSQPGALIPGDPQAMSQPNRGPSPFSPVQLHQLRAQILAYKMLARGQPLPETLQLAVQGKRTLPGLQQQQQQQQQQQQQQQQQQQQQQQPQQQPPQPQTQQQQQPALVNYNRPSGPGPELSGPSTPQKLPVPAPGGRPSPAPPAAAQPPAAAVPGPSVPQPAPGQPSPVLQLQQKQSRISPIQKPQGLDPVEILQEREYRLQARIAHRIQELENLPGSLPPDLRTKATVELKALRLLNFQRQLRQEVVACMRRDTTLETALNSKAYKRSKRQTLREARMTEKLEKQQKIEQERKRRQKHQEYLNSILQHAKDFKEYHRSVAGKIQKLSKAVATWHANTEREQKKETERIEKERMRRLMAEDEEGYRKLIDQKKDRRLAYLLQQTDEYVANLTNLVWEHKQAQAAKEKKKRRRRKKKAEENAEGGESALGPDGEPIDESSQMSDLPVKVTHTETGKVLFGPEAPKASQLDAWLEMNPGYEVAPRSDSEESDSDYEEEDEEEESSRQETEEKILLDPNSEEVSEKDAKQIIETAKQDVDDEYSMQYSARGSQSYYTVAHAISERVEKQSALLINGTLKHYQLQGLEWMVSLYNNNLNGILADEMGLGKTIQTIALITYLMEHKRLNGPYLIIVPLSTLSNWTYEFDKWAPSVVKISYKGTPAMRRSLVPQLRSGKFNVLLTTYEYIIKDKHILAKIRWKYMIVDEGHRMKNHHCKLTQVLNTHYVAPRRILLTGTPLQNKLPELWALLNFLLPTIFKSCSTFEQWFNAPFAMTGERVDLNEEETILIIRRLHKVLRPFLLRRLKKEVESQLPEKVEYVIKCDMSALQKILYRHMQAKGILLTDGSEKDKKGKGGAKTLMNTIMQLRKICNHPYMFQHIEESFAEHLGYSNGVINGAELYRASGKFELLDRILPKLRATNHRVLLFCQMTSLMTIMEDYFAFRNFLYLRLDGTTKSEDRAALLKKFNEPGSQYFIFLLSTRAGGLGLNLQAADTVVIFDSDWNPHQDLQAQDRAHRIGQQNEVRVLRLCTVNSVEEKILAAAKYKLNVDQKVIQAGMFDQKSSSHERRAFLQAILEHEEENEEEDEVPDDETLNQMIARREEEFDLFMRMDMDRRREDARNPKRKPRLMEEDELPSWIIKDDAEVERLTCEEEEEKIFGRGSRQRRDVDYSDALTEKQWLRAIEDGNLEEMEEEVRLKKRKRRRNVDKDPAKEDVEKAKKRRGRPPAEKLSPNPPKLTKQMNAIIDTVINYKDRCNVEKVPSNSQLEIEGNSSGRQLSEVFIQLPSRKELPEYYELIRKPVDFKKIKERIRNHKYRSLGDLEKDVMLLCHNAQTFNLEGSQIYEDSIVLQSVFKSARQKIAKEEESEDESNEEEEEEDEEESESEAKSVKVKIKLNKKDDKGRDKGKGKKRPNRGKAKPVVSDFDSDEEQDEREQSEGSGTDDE
# Target sequence in this assay (P40337 whole entry): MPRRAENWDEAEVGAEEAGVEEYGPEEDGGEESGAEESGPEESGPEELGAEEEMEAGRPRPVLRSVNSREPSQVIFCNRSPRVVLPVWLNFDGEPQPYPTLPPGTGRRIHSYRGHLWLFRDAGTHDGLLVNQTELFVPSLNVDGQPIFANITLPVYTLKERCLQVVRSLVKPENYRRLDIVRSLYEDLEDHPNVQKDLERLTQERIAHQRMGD
# [2] = biological target: T1, von Hippel-Lindau disease tumor suppressor/SWI/SNF-related matrix-associated actin-dependent regulator of chromatin subfamily A member 2; assay: PROTAC activity at VHL1/SMARCA2 in human genetically modified Hela cells assessed as maximal degradation measured after 24 hrs incubation by Nano-Glo HiBiT Lytic Detection Assay relative to control; type: cell-based
# Target sequence in this assay (P40337 whole entry, looked up): as the sequence (P40337 whole entry) above
# Target sequence in this assay (P51531 whole entry, looked up): as the sequence (P51531 whole entry) above
# [3] = biological target: T2, von Hippel-Lindau disease tumor suppressor/SWI/SNF-related matrix-associated actin-dependent regulator of chromatin subfamily A member 4 (Homo sapiens, UniProt P51532+P40337); assay: PROTAC activity at VHL1/SMARCA4 in human genetically modified Hela cells assessed as degradation measured after 24 hrs incubation by Nano-Glo HiBiT Lytic Detection Assay; type: cell-based
# Target sequence in this assay (P51532 whole entry): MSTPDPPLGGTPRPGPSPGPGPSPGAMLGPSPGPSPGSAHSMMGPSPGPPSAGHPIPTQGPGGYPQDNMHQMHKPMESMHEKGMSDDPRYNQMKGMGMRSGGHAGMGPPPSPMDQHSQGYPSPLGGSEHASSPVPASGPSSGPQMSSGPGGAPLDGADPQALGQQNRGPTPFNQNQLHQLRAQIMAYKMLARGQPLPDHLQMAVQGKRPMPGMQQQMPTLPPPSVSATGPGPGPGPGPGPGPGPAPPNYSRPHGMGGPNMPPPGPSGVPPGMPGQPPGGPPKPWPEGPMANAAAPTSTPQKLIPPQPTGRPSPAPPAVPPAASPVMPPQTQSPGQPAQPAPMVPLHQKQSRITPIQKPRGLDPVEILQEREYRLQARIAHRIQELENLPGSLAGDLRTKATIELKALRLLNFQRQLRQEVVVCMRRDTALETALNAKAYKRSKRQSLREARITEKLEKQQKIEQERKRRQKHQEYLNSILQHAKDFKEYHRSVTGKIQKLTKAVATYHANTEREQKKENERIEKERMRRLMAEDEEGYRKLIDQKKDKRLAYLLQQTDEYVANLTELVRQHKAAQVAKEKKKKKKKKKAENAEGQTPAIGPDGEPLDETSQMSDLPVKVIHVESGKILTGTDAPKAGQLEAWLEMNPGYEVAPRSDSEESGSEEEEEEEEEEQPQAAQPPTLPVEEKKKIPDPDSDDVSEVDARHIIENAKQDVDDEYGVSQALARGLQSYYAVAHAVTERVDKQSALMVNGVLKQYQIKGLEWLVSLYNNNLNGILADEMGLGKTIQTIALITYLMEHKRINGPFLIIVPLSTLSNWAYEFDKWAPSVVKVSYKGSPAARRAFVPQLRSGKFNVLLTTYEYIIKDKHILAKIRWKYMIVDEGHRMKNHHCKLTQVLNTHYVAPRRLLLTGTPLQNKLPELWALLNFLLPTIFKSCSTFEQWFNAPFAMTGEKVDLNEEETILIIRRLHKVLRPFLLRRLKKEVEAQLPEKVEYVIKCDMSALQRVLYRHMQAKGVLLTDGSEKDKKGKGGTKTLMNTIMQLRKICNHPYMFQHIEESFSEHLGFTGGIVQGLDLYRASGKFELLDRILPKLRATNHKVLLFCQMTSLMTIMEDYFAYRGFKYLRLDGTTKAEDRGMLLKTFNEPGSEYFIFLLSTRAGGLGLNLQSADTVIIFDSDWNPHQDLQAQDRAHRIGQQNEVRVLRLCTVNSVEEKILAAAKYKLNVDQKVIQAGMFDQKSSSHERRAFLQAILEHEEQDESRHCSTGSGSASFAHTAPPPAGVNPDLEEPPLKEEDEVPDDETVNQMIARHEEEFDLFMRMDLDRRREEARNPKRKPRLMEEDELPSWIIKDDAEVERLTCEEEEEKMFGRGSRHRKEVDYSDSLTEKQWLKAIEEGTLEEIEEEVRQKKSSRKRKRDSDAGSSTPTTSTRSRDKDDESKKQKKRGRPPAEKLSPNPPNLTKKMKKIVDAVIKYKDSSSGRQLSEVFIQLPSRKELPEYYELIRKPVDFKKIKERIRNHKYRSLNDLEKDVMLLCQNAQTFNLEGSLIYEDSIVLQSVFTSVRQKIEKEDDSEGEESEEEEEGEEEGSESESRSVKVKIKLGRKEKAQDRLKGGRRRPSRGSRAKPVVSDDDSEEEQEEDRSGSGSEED
# Target sequence in this assay (P40337 whole entry): as the sequence (P40337 whole entry) above
# [4] = biological target: T2, von Hippel-Lindau disease tumor suppressor/SWI/SNF-related matrix-associated actin-dependent regulator of chromatin subfamily A member 4; assay: PROTAC activity at VHL1/SMARCA4 in human genetically modified Hela cells assessed as maximal degradation measured after 24 hrs incubation by Nano-Glo HiBiT Lytic Detection Assay relative to control; type: cell-based
# Target sequence in this assay (P40337 whole entry, looked up): as the sequence (P40337 whole entry) above
# Target sequence in this assay (P51532 whole entry, looked up): as the sequence (P51532 whole entry) above
# HeLa = assay: Selectivity ratio, ratio of DC50 for VHL1/SMARCA4 in human genetically modified Hela cells to VHL1/SMARCA2 in human genetically modified Hela cells; type: cell-based
# [5] = biological target: SWI/SNF-related matrix-associated actin-dependent regulator of chromatin subfamily A member 2 (Homo sapiens, UniProt P51531); assay: Inhibition of recombinant human GST-tagged SMARCA2 bromodomain measured after 120 mins incubation by TR-FRET assay
# Chain of SWI/SNF-related matrix-associated actin-dependent regulator of chromatin subfamily A member 2 (P51531 whole entry): as the sequence (P51531 whole entry) above
# [6] = biological target: SWI/SNF-related matrix-associated actin-dependent regulator of chromatin subfamily A member 4 (Homo sapiens, UniProt P51532); assay: Inhibition of recombinant human GST-tagged SMARCA4 bromodomain measured after 120 mins incubation by TR-FRET assay
# Chain of SWI/SNF-related matrix-associated actin-dependent regulator of chromatin subfamily A member 4 (P51532 whole entry): as the sequence (P51532 whole entry) above
Compound,DC50 [1] [nM],Emax [2] [%],DC50 [3] [nM],Emax [4] [%],Ratio (HeLa),pIC50 [5],pIC50 [6]
Cc1ncsc1-c1ccc([C@H](CCCCCN2CCC(c3ccc4c(c3)-n3c(nc(=O)c5c(Cl)cccc53)C43CCCCC3)CC2)NC(=O)[C@@H]2C[C@@H](O)CN2C(=O)[C@@H](NC(=O)C2(F)CC2)C(C)(C)C)cc1,7.5,92,22,87,3,,
O=c1nc2n(C3CCCC3)c3cc(C4CCNCC4)ccc3n2c2cccc(Br)c12,,,,,,7.35,7.08
O=c1nc2n(c3cccc(Cl)c13)-c1ccc(C3CCNCC3)cc1C21CCOCC1,,,,,,6.27,6.21
O=c1nc2n(c3cccc(Cl)c13)-c1ccc(C3CCNCC3)cc1C21CCCCC1,,,,,,7.28,
O=c1nc2n(c3cccc(Cl)c13)-c1ccc(C3CCNCC3)cc1C21CCCC1,,,,,,7.25,7.26
Cc1ncsc1-c1ccc([C@H](C)NC(=O)[C@@H]2C[C@@H](O)CN2C(=O)[C@@H](NC(=O)[C@H]2CC[C@H](CN3CCC(c4ccc5c(c4)C4(CCCCC4)c4nc(=O)c6c(Br)cccc6n4-5)CC3)CC2)C(C)(C)C)cc1,3,93,162,58,54,,
Cc1ncsc1-c1ccc([C@H](CCCCCN2CCC(c3ccc4c(c3)-n3c(nc(=O)c5c(Br)cccc53)C43CCCCC3)CC2)NC(=O)[C@@H]2C[C@@H](O)CN2C(=O)[C@@H](NC(=O)C2(F)CC2)C(C)(C)C)cc1,3,95,84,93,28,,
O=c1nc2n(c3cccc(Cl)c13)-c1ccc(C3CCNCC3)cc1C21CCNCC1,,,,,,5.46,5.48
Cc1ncsc1-c1ccc([C@H](C)NC(=O)[C@@H]2C[C@@H](O)CN2C(=O)[C@@H](NC(=O)[C@H]2CC[C@H](CN3CC4(CCC(n5cc(-c6cc(-c7ccccc7O)nnc6N)cn5)CC4)C3)CC2)C(C)(C)C)cc1,23,93,895,52,39,,
Cc1ncsc1-c1ccc([C@H](C)NC(=O)[C@@H]2C[C@@H](O)CN2C(=O)[C@@H](NC(=O)CCCCN2CCC(c3ccc4c(c3)C3(CCCCC3)c3nc(=O)c5c(Cl)cccc5n3-4)CC2)C(C)(C)C)cc1,105,88,> 10000,> 39,> 950,,
Cc1ncsc1-c1ccc([C@H](CCCCCN2CCC(c3ccc4c(c3)C3(CCCCC3)c3nc(=O)c5c(Br)cccc5n3-4)CC2)NC(=O)[C@@H]2C[C@@H](O)CN2C(=O)[C@@H](NC(=O)C2(F)CC2)C(C)(C)C)cc1,0.24,97,1.7,97,7,,
O=c1nc2n(c3cccc(Br)c13)-c1ccc(C3CCNCC3)cc1C21CCCC1,,,,,,7.21,7.29
O=c1nc2n(c3cccc(O)c13)-c1cc(C3CCNCC3)ccc1C21CCCCC1,,,,,,5.34,5.49
O=c1nc2n(c3cccc(Cl)c13)-c1cc(C3CCNCC3)ccc1C21CCOCC1,,,,,,6.20,5.94
Cc1ncsc1-c1ccc([C@H](C)NC(=O)[C@@H]2C[C@@H](O)CN2C(=O)[C@@H](c2cc(N3CCC(CN4CCC(O[C@H]5C[C@H](Oc6cc(CN7C8CCC7CN(c7cc(-c9ccccc9O)nnc7N)C8)ccn6)C5)CC4)CC3)no2)C(C)C)cc1,0.1,97,1.3,96,13,,
O=c1nc2n(c3cccc(Br)c13)-c1ccc(C3CCNCC3)cc1C21CCCCC1,,,,,,7.52,7.42
O=c1nc2n(c3cccc(Cl)c13)-c1ccc(C3CCNCC3)cc1C21CCCCCC1,,,,,,6.82,6.89
O=c1nc2n(c3ccccc13)-c1cc(C3CCNCC3)ccc1C21CCCCC1,,,,,,5.51,5.84
CCc1cccc2c1c(=O)nc1n2-c2cc(C3CCNCC3)ccc2C12CCCCC2,,,,,,5.47,5.55
Cc1ncsc1-c1ccc([C@H](C)NC(=O)[C@@H]2C[C@@H](O)CN2C(=O)[C@@H](NC(=O)CN2CCC(c3ccc4c(c3)C3(CCCCC3)c3nc(=O)c5c(Cl)cccc5n3-4)CC2)C(C)(C)C)cc1,5.3,97,8.7,97,2,,
Cc1ncsc1-c1ccc([C@H](C)NC(=O)[C@@H]2C[C@@H](O)CN2C(=O)[C@@H](NC(=O)[C@H]2CC[C@H](CN3CCC(c4ccc5c(c4)-n4c(nc(=O)c6c(Br)cccc64)C54CCCCC4)CC3)CC2)C(C)(C)C)cc1,14,88,> 10000,37,> 700,,
Cc1ncsc1-c1ccc([C@H](C)NC(=O)[C@@H]2C[C@@H](O)CN2C(=O)[C@@H](NC(=O)CCN2CCC(c3ccc4c(c3)C3(CCCCC3)c3nc(=O)c5c(Cl)cccc5n3-4)CC2)C(C)(C)C)cc1,99,93,543,77,6,,
Cc1ncsc1-c1ccc([C@H](C)NC(=O)[C@@H]2C[C@@H](O)CN2C(=O)[C@@H](NC(=O)CCCCCN2CCC(c3ccc4c(c3)C3(CCCCC3)c3nc(=O)c5c(Cl)cccc5n3-4)CC2)C(C)(C)C)cc1,29,94,697,55,24,,
O=c1nc2n(c3cccc(Br)c13)-c1cc(C3CCNCC3)ccc1C21CCCCC1,,,,,,7.19,7.05
O=c1nc2n(c3cccc(Cl)c13)-c1cc(C3CCNCC3)ccc1C21CCCC1,,,,,,6.97,6.88
Cc1ncsc1-c1ccc([C@H](C)NC(=O)[C@@H]2C[C@@H](O)CN2C(=O)[C@@H](NC(=O)[C@H]2CC[C@H](CN3CCC(c4ccc5c(c4)C4(CCCCC4)c4nc(=O)c6c(Cl)cccc6n4-5)CC3)CC2)C(C)(C)C)cc1,,92,> 10000,48,> 1500,,
O=c1nc2n(c3nccc(O)c13)-c1cc(C3CCNCC3)ccc1C21CCCCC1,,,,,,< 5.00,< 5.00
Cc1ncsc1-c1ccc([C@H](C)NC(=O)[C@@H]2C[C@@H](O)CN2C(=O)[C@@H](NC(=O)CCCN2CCC(c3ccc4c(c3)C3(CCCCC3)c3nc(=O)c5c(Cl)cccc5n3-4)CC2)C(C)(C)C)cc1,61,87,7000,70,115,,
O=c1nc2n(c3ccnc(O)c13)-c1cc(C3CCNCC3)ccc1C21CCCCC1,,,,,,< 5.00,< 5.00
